One assay deals with human hepatoma Huh-7 cell line harboring a HCV replicon. Description: HCV replicon assay (inhibition of viral replication, luciferase readout). The assay is classed as cell-based. Conditions: Hepatitis C virus, 72 h, Huh-7 HCV replicon cells, 3 days incubation. How it is done:
The anti-HCV activity of the compounds of this invention was tested in a human hepatoma Huh-7 cell line harboring a HCV replicon. The assay comprised the following steps:
Step 1: Compound Preparation and Serial Dilution.
Serial dilution was performed in 100% DMSO in a 384-well plate. A solution containing a compound at 225-fold concentration of the starting final serial dilution concentration was prepared in 100% DMSO and 15 μL added to the pre-specified wells in column 3 or 13 of a polypropylene 384-well plate. The rest of the 384-well plate was filled with 10 μL 100% DMSO except for columns 23 and 24, where 10 μL of 500 μM a HCV protease inhibitor (ITMN-191) in 100% DMSO was added. The HCV protease inhibitor was used a control of 100% inhibition of HCV replication. The plate was then placed on a Biomek FX Workstation to start the serial dilution. The serial dilution was performed for ten cycles of 3-fold dilution from column 3 to 12 or from column 13 to 22.
Step 2: Cell Culture Plate Preparation and Compound Addition
To each well of a black polypropylene 384-well plate, 90 μL of cell media containing 1600 suspended Huh-7 HCV replicon cells was added with a Biotek uFlow Workstation. A volume of 0.4 μL of the compound solution was transferred from the serial dilution plate to the cell culture plate on a Biomek FX Workstation. The DMSO concentration in the final assay condition was 0.44%. The plates were incubated for 3 days at 37° C. with 5% CO2 and 85% humidity.
Step 3: Detection of Cytotoxicity and Inhibition of Viral Replication
a) Assessment of cytotoxicity: The media in the 384-well cell culture plate was aspirated with a Biotek EL405 plate-washer. A volume of 50 μL of a solution containing 400 nM Calcein AM in 100% PBS was added to each well of the plate with a Biotek uFlow Workstation. The plate was incubated for 30 minutes at room temperature before the fluorescence signal ([…]) was measured with a Perkin Elmer Envision Plate Reader.
b) Assessment of inhibition of viral replication: The calcein-PBS solution in the 384-well cell culture plate was aspirated with a Biotek EL405 plate-washer. A volume of 20 μL of Dual-Glo luciferase buffer (Promega, Dual-Glo Luciferase Assay Reagent, cat. #E298B) was added to each well of the plate with a Biotek uFlow Workstation. The plate was incubated for 10 minutes at room temperature. A volume of 20 μL of a solution containing 1:100 mixture of Dual-Glo Stop & Glo substrate (Promega, Dual-Glo Luciferase Assay Reagent, cat. #E313B) and Dual-Glo Stop & Glo buffer (Promega, Dual-Glo Luciferase Assay Reagent, cat. #E314B) was then added to each well of the plate with a Biotek uFlow Workstation. The plate was incubated at room temperature for 10 minutes before the luminescence signal was measured with a Perkin Elmer Envision Plate Reader.
The percent cytotoxicity was determined by calcein AM conversion to fluorescent product. The average fluorescent signal from the DMSO control wells was defined as 100% nontoxic. The individual fluorescent signal from testing compound treated well was divided by the average signal from DMSO control wells and then multiplied by 100% to get the percent viability. The percent anti-HCV replication activity was determined by the luminescence signal from the testing well compared to DMSO control wells. The background signal was determined by the average luminescence signal from the HCV protease inhibitor treated wells and was subtracted from the signal from the testing wells as well as the DMSO control wells. Following 3-fold serial dilutions, the EC50 and CC50 values were calculated by fitting % inhibition at each concentration to the following equation: % inhibition=100%/[EC50/[I])^b+1]
Where b is Hill's coefficient. See, for reference, Hill, A. V., The Possible Effects of the Aggregation of the Molecules of Hæmoglobin on its Dissociation Curves, J. Physiol. 40: iv-vii. (1910). […]
(In antiviral work, replicon cells carry a viral genome segment that copies itself.)
The term inhibition denotes the drop in the measured response relative to a control, in per cent. `CC(C)(C)C#Cc1cc(N(C(=O)[C@H]2CC[C@H](C)CC2)[C@H]2CC[C@@H](OC3CCOCC3)CC2)c(C(=O)O)s1` [Compound 219, 5-(3,3-dimethylbut-1-ynyl)-3-((1r,4R)-4-methyl-N-((1r,4R)-4-(tetrahydro-2H-pyran-4-yloxy)cyclohexyl)cyclohexanecarboxamido)thiophene-2-carboxylic acid]: 2 µM produced 100% inhibition.

In turn, `CN(C)Cc1ccnc(O[C@H]2CC[C@H](N(c3cc(C#CC4(C(F)(F)F)CC4)sc3C(=O)O)C(=O)[C@H]3CC[C@H](C)CC3)CC2)c1` [Compound 340, 3-((1r,4R)—N-((1r,4R)-4-(4-((dimethylamino)methyl)pyridin-2-yloxy)cyclohexyl)-4-methylcyclohexanecarboxamido)-5-((1-(trifluoromethyl)cyclopropyl)ethynyl)thiophene-2-carboxylic acid] returned an inhibition at 2 µM of 100%.

With `CC(C)(C)C#Cc1cc(N(C(=O)[C@H]2CC[C@H](C)CC2)[C@H]2CC[C@@H](Sc3nccs3)CC2)c(C(=O)O)s1` [Compound 107, 5-(3,3-Dimethylbut-1-ynyl)-3-(4-methyl-N-(4-(thiazol-2-ylthio)cyclohexyl)cyclohexanecarboxamido)thiophene-2-carboxylic acid], the inhibition at 2 µM stood at 98.9%.

In turn, `CC(C)(C)C#Cc1cc(N(C(=O)[C@H]2CC[C@H](C)CC2)C2CCC(Oc3cc[n+]([O-])cc3)CC2)c(C(=O)O)s1` (stereo partly shown) [Compound 157, 5-(3,3-Dimethylbut-1-ynyl)-3-(4-methyl-N-(4-(pyridin-4-yloxy-N-oxide)cyclohexyl)cyclohexanecarboxamido)thiophene-2-carboxylic acid] showed an inhibition at 2 µM of 99.9%.

On to `CC(C)(C)C#Cc1cc(N(C(=O)[C@H]2CC[C@H](C)CC2)[C@H]2CC[C@H](Sc3ccncc3)CC2)c(C(=O)O)s1` [Compound 87, 5-(3,3-Dimethylbut-1-ynyl)-3-(4-methyl-N-(4-(pyridin-4-ylthio)cyclohexyl)cyclohexanecarboxamido)thiophene-2-carboxylic acid], for which the inhibition at 2 µM stood at 99.5%.

For `CC(C)(C)C#Cc1cc(N(C(=O)[C@H]2CC[C@H](C)CC2)[C@H]2CC[C@H](Oc3cccc(C(F)(F)F)n3)CC2)c(C(=O)O)s1` [Compound 17, 5-(3,3-Dimethyl-but-1-ynyl)-3-{(trans-4-methyl-cyclohexanecarbonyl)-[trans-4-(6-trifluoromethyl-pyridin-2-yloxy)-cyclohexyl]-amino}-thiophene-2-carboxylic acid], the inhibition at 2 µM amounted to 67.6%.

Regarding `CC(C)(C)C#Cc1cc(N(C(=O)[C@H]2CC[C@H](C)CC2)[C@H]2CC[C@H](OC3CCOC3)CC2)c(C(=O)O)s1` (stereo partly shown) [Compound 224, 5-(3,3-dimethylbut-1-ynyl)-3-(4-methyl-N-(4-(tetrahydrofuran-3-yloxy)cyclohexyl)cyclohexanecarboxamido)thiophene-2-carboxylic acid], at 2 µM the inhibition was 99.9%.

`C[C@H]1CC[C@H](C(=O)N(c2cc(C#CC3(C(F)(F)F)CC3)sc2C(=O)O)[C@H]2CC[C@H](OC3CCOC3)CC2)CC1` (stereo partly drawn) [Compound 345, 3-((1r,4R)-4-methyl-N-((1r,4R)-4-(tetrahydrofuran-3-yloxy)cyclohexyl)cyclohexanecarboxamido)-5-(2-(1-(trifluoromethyl)cyclopropyl)ethynyl)thiophene-2-carboxylic acid] registered an inhibition at 2 µM of 100%.

Regarding `CC(C)(C)C#Cc1cc(N(C(=O)[C@H]2CC[C@H](C)CC2)[C@H]2CC[C@@H](Oc3cncnc3)CC2)c(C(=O)O)s1` [Compound 179, 5-(3,3-Dimethylbut-1-ynyl)-3-(4-methyl-N-(4-(pyrimidin-5-yloxy)cyclohexyl)cyclohexanecarboxamido)thiophene-2-carboxylic acid], at 2 µM the inhibition was 99.5%.

The compound `CC(C)(C)C#Cc1cc(N(C(=O)[C@H]2CC[C@H](C)CC2)[C@H]2CC[C@H](O[C@H]3CCNC3)CC2)c(C(=O)O)s1` [Compound 226, 5-(3,3-dimethylbut-1-ynyl)-3-(4-methyl-N-(4-((S)-pyrrolidin-3-yloxy)cyclohexyl)cyclohexanecarboxamido)thiophene-2-carboxylic acid] gave an inhibition at 2 µM of 99.9%.

The compound `CC(C)(C)C#Cc1cc(N(C(=O)[C@H]2CC[C@H](C)CC2)[C@H]2CC[C@H](Sc3nc(N)n[nH]3)CC2)c(C(=O)O)s1` [Compound 95, 3-(N-(4-(5-Amino-2H-1,2,4-triazol-3-ylthio)cyclohexyl)-4-methylcyclohexanecarboxamido)-5-(3,3-dimethylbut-1-ynyl)thiophene-2-carboxylic acid] registered an inhibition at 2 µM of 99.9%.

Compound `CC(C)(C)C#Cc1cc(N(C(=O)[C@H]2CC[C@H](C)CC2)[C@H]2CC[C@H](Oc3cncnc3)CC2)c(C(=O)O)s1` [Compound 162, 5-(3,3-Dimethylbut-1-ynyl)-3-(4-methyl-N-(4-(pyrimidin-5-yloxy)cyclohexyl)cyclohexanecarboxamido)thiophene-2-carboxylic acid] showed an inhibition at 2 µM of 99.9%.

For `CC(C)(C)C#Cc1cc(N(C(=O)[C@H]2CC[C@H](C)CC2)[C@H]2CC[C@H](Oc3ccncn3)CC2)c(C(=O)O)s1` [Compound 163, 5-(3,3-Dimethylbut-1-ynyl)-3-(4-methyl-N-(4-(pyrimidin-4-yloxy)cyclohexyl)cyclohexanecarboxamido)thiophene-2-carboxylic acid], the inhibition at 2 µM turned out to be 100%.

Take `C[C@@H]1CC[C@@H](C(=O)N(c2cc(C#CC(C)(C)C)sc2C(=O)O)[C@H]2CC[C@H](O[C@H]3CCOC3)CC2)[C@@H](O)C1` [Compound 309, 5-(3,3-dimethylbut-1-ynyl)-3-((1R,2S,4R)-2-hydroxy-4-methyl-N-(4-(tetrahydrofuran-3S-yloxy)cyclohexyl)cyclohexanecarboxamido)thiophene-2-carboxylic acid]: testing at 2 µM gave an inhibition of 100%.

Compound `CC(C)(C)C#Cc1cc(N(C(=O)[C@H]2CC[C@H](C)CC2)[C@H]2CC[C@@H](O[C@H]3CCOC3)CC2)c(C(=O)O)s1` [Compound 332, 5-(3,3-Dimethyl-but-1-ynyl)-3-{(trans-4-methyl-cyclohexanecarbonyl)-[4-(tetrahydro-furan-3(S)-yloxy)-cis-cyclohexyl]-amino}-thiophene-2-carboxylic acid] showed an inhibition at 2 µM of 99.9%.

On to `Cc1nnc(S[C@H]2CC[C@H](N(c3cc(C#CC(C)(C)C)sc3C(=O)O)C(=O)[C@H]3CC[C@H](C)CC3)CC2)o1` [Compound 98, 5-(3,3-Dimethylbut-1-ynyl)-3-(4-methyl-N-(4-(5-methyl-1,3,4-oxadiazol-2-ylthio)cyclohexyl)cyclohexanecarboxamido)thiophene-2-carboxylic acid], for which the inhibition at 2 µM turned out to be 100%.

`Cc1nnc(S[C@H]2CC[C@@H](N(c3cc(C#CC(C)(C)C)sc3C(=O)O)C(=O)[C@H]3CC[C@H](C)CC3)CC2)s1` [Compound 103, 5-(3,3-Dimethylbut-1-ynyl)-3-(4-methyl-N-(4-(5-methyl-1,3,4-thiadiazol-2-ylthio)cyclohexyl)cyclohexanecarboxamido)thiophene-2-carboxylic acid] registered an inhibition at 2 µM of 98.3%.

`C[C@@H]1CC[C@@H](C(=O)N(c2cc(C#CC(C)(C)C)sc2C(=O)O)[C@H]2CC[C@H](OC3CCOC3)CC2)[C@@H](O)C1` (stereo partly shown) [Compound 227] yielded an inhibition at 2 µM of 100%.

The same assay, now with this note: Huh-7 HCV replicon cells, 3 days incubation.
In general, % inhibition refers to the share of the control response that was lost under treatment. With “5-(3,3-dimethylbut-1-ynyl)-3-((1r,4R)-4-methyl-N-((1s,4S)-4-(oxetan-3-yloxy)cyclohexyl)cyclohexanecarboxamido)-5-(2-(1-(trifluoromethyl)cyclopropyl)ethynyl)thiophene-2-carboxylic acid [Compound 347]”, the “% inhibition at 2μM” value is 99.97%.

Source of the values: US8569302B2, “Inhibitors of flaviviridae viruses” (Gilead Sciences, Inc., priority 2009, dated 2013).
